Measured values reported in patent EP1121151B1, “ANTI-INFLAMMATORY ALPHA2, BETA1 INTEGRIN-RELATED SUBSTANCES OR ANTIBODIES” (Lindbom, Lennart, priority 1998, dated 2006).

Test system: PMN
Experiment: Intravital time lapse videomicroscopy of PAF-stimulated PMN locomotion in rat mesenteric tissue in vivo
Details: rat mesentery, PAF 10^-7 M
Procedure: Intravital time lapse videomicroscopy of PMN locomotion in vivo. PMN locomotion in rat mesenteric tissue was studied through use of intravital time lapse videomicroscopy according to the protocol previously described in detail (Werr et al., supra). In brief, Wistar rats (200-250 g) were anesthetized with equal parts of fluanison/fentanyl (10/0.2 mg/ml; Hypnorm; Janssen-Cilag Ltd., Saunderton, UK) and midazolam (5 mg/ml; Dormicum; Hoffman-La Roche, Basel, Switzerland) diluted 1:1 with sterile water (2 ml/kg i.m.). Body temperature was maintained at 37° C by a heating pad connected to a rectal thermistor. After laparotomy, a segment of the ileum was exposed on a heated transparent pedestal to allow microscopic observation of the mesenteric microvasculature (Orthoplan microscope equipped with water immersion lens SW×25, NA 0.60; Leitz, Wetzlar, Germany). The microscopic image was televised and recorded on time lapse video (at 1/7 of normal speed). Analysis of leukocyte migration in the mesenteric tissue was made off line and the migration path of individual leukocytes was tracked with a digital image analyzer. […]

## ACRGDGWMCG
ten-fold higher concentrations than 500 µM, some experiments
  effect on PMN migration at ten-fold higher concentrations: did not yield different effects
Topical administration, peptide 500 µM
  effect on PMN migration: without effect
